{"source": "patent US5266594A", "about": "“Inhibitors of nitric oxide synthase and use thereof to prevent glutamate neurotoxicity” (priority 1992, dated 1993)", "key": {"brain NOS": {"tested_on": "brain NOS", "assay": "brain NOS activity in cerebellar homogenates after i.p. administration", "assay_type": "in vivo, rat (Sprague-Dawley)", "description": "Adult male rats (Sprague-Dawley, 3 per group) were injected intraperitoneally (i.p.) twice daily with 5 mg/kg or 50 mg/kg of NO2 Arg, MeArg, arginine or vehicle twice a day for four consecutive days. The animals were sacrificed by decapitation 14 hours following the last injection.\nCerebellar homogenates were used to determine NOS activity."}, "cGMP formation": {"tested_on": "cGMP formation", "assay": "cGMP formation in cortical cell cultures (RIA)", "assay_type": "cell-based, rat", "conditions": "300 μM NMDA (plus 10 μM glycine), 1 minute; 100 μM NO2 Arg, 1 mM L-Arg, 100 units of SOD, 500 μM Hb", "method": "Primary dissociated cell cultures were prepared from fetal rats (13-to 14-day gestation for cortex and caudate-putamen cultures and 19- to 20-day gestation for hippocampal cultures). […] Dissociated cells were plated at a density of 3-4×10^5 cells per well in polyornithine-coated 15-mm multiwell plates. After 4 days the cells were treated with 10 μg of 5-fluoro-2'-deoxyuridine to prevent proliferations of noneuronal cells. Cells were maintained in MEM/5% horse serum/2 mM glutamine in 8% CO2 /humidified atmosphere at 37° C. The medium was changed twice weekly. Mature neurons (3-4 weeks) were used.\nFor determination of cGMP the cells were washed three times with CSS. […] After ether extraction, cGMP levels were determined by RIA.\nData are means ±SEM (n=6-8).\nData are means ±SEM (n=8-12)."}, "NOS protein": {"tested_on": "NOS protein", "assay": "Western blot of NOS protein in brain extracts after i.p. administration", "assay_type": "in vivo, rat", "conditions": "i.p. administration of 5 and 50 mg/kg", "description": "To determine whether NO2 Arg administration alters levels of NOS protein, Western blot analysis of brain extracts were performed following the i.p. administration of both 5 and 50 mg/kg of NO2 Arg. Soluble cerebellar homogenates (100 μg) were separated on a 7.5% SDS-polyacrylamide gel and transferred to nitrocellulose. Lanes were incubated overnight with affinity purified NOS antibody (1:2500) at room temperature, and bands were visualized with an alkaline phosphatase linked secondary antibody. […] Therefore, the loss of NOS activity following peripheral administration of NO2 Arg is not attributed to inhibition of the synthesis of enzyme protein."}, "NOS": {"biological_target": "NOS", "conditions": "cited from earlier work"}, "cortical cell cultures": {"tested_on": "cortical cell cultures", "assay": "cells", "assay_type": "cell-based, rat", "conditions": "for EC50: cortical cultures", "description": "Primary dissociated cell cultures were prepared from fetal rats (13-to 14-day gestation for cortex and caudate-putamen cultures and 19- to 20-day gestation for hippocampal cultures). The tissue of interest was dissected, incubated for 15 minutes in 0.027% trypsin in Brooks-Logan solution (5% phosphate-buffered saline/0.04M sucrose/10 mM Hepes/0.03M glucose, pH 7.4), and then transferred to modified Eagle's medium (MEM) 10% horse serum/10% fetal bovine serum/2 mM glutamine for trituration. Dissociated cells were plated at a density of 3-4×10^5 cells per well in polyornithine-coated 15-mm multiwell plates. After 4 days the cells were treated with 10 μg of 5-fluoro-2'-deoxyuridine to prevent proliferations of noneuronal cells. Cells were maintained in MEM/5% horse serum/2 mM glutamine in 8% CO2 /humidified atmosphere at 37° C. The medium was changed twice weekly. Mature neurons (3-4 weeks) were used.\nCells were exposed to excitatory amino acids according to the method of Koh and Choi (J. Neurosci. (1988) 8:2153-2163). Before exposure, the cells were washed three times with Tris-buffered control salt solution (CSS), containing 120 mM NaCl/5.4 mM KCl/1.8 mM CaCl2 /25 mM Tris hydrochloride, pH 7.4 at room temperature/15 mM glucose. Brief exposures to glutamate, NMDA (plus 10 μM glycine), quisqualate, and sodium nitroprusside (SNP) were performed for 5 minutes in CSS. The exposure solution was then washed away and replaced by MEM with 21 mM glucose; then the cells were placed in an incubator for 20-24 hour. Long exposures to kainate were performed in MEM/21 mM glucose for 20-24 hour in the incubator. After exposure to the excitatory amino acids, the medium was replaced by CSS/0.4% trypan blue, which stains nonviable cells. Two to four photographs (10-20×) were made of each well, and viable versus nonviable cells were counted. The cytotoxicity data represent 6-24 separate wells assayed per data point, with ≈500-1500 cells counted per well. Neuronal cell injury was also assessed by measuring the release of lactate dehydrogenase by damaged or destroyed cells into the extracellular fluid following drug exposure.\nBefore initiating cytotoxicity experiments with NOS inhibitors, the potency of NMDA applied for 5 minutes in inducing cell death was evaluated by examining exclusion of 0.4% trypan blue by viable cells or measuring lactate dehydrogenase released by damaged or destroyed cells into the extracellular fluid.\nTo examine the role of NO in other forms of glutamate neurotoxicity, the effects of NO2 Arg cytotoxicity induced by quisqualate, kainate, and NMDA were compared. […] Data are means ±SEM (n=6-24). Cell death was determined by 0.4% trypan blue exclusion by viable cells."}}, "note": "“Also recorded” adds a separate entry of the source. Like-named read-outs stand apart in the source and are kept apart here."}
{"smiles": "N=C(NCCC[C@H](N)C(=O)O)N[N+](=O)[O-]", "note": "[NO2 Arg, L-N^ω -nitroarginine]", "values": [{"measurement": "inhibition of brain NOS", "setting": "brain NOS; 5 mg/kg i.p. twice daily, four consecutive days, 14 hours after last injection", "result": "about 50%"}, {"measurement": "inhibition of enzyme activity in the brain after peripheral administration", "setting": "brain NOS; 5 mg/kg, peripheral administration", "result": "markedly inhibits enzyme activity in the brain"}, {"measurement": "inhibition of brain NOS enzyme activity", "setting": "brain NOS; 50 mg/kg i.p. twice daily, four consecutive days, 14 hours after last injection", "result": 95, "unit": "%"}, {"measurement": "inhibition of NOS activity, repeated administration for 7 days versus 4 days", "setting": "brain NOS; 7 days", "result": "no greater inhibition of NOS activity than 4 days of treatment"}, {"measurement": "nature of inhibition of NOS in vivo", "setting": "brain NOS; FIG. 3, before and after dialysis", "result": "irreversible inhibition"}, {"measurement": "effect of dialysis on enzyme activity", "setting": "brain NOS; crude supernatant from treated animals dialyzed for 24 hours", "result": "only slightly increases enzyme activity"}, {"measurement": "time for which brain NOS activity does not return to normal levels", "setting": "brain NOS; following 90% inhibition with 50 mg/kg", "result": "at least 5 days"}, {"measurement": "reduction of enzyme activity", "setting": "brain NOS; single injection of 50 mg/kg", "result": 50, "unit": "%"}, {"measurement": "effect on NMDA stimulation of cGMP formation", "setting": "cGMP formation", "result": "antagonized"}, {"measurement": "alterations in NOS protein", "setting": "NOS protein", "result": "No alterations in NOS protein were observed"}, {"measurement": "Ki", "setting": "NOS; Dwyer et al. (1991), read-out: Ki, inhibition of NOS activity of purified enzyme preparations", "result": 0.2, "unit": "µM"}, {"measurement": "mode of inhibition of NOS", "setting": "NOS; Moore (1990)", "result": "competitive inhibitor of NOS"}, {"measurement": "prevention of neurotoxicity, in words", "setting": "cortical cell cultures", "result": "prevent neurotoxicity in proportion to their relative potencies as NOS inhibitors"}, {"measurement": "Cell death, % ± SEM (kainate + NO2 Arg)", "setting": "cortical cell cultures; 100 μM kainate +500 μM NO2 Arg", "result": "87.0 ± 3.2", "unit": "%"}, {"measurement": "Cell death, % ± SEM (NMDA + NO2 Arg)", "setting": "cortical cell cultures; 300 μM NMDA + 10 μM glycine +100 μM NO2 Arg", "result": "17.7 ± 3.0", "unit": "%"}, {"measurement": "Cell death, % ± SEM (NMDA + NO2 Arg + L-Arg)", "setting": "cortical cell cultures; 300 μM NMDA + 10 μM glycine +100 μM NO2 Arg + 1mM L-Arg", "result": "63.4 ± 5.5", "unit": "%"}, {"measurement": "effect on NMDA cytotoxicity (photomicrographs, FIG. 4)", "setting": "cortical cell cultures; 300 μM NMDA plus 10 μM glycine plus 100 NO2 Arg", "result": "inhibition of NMDA cytotoxicity"}, {"measurement": "Cell death, % ± SEM (glutamate + NO2 Arg + L-Arg)", "setting": "cortical cell cultures; 500 μM glutamate +100 μM NO2 Arg + 1 Mm L-Arg", "result": "48.2 ± 3.2", "unit": "%"}, {"measurement": "Cell death, % ± SEM (glutamate + NO2 Arg)", "setting": "cortical cell cultures; 500 μM glutamate +100 μN NO2 Arg", "result": "28.9 ± 6.0", "unit": "%"}, {"measurement": "Cell death, % ± SEM (quisqualate + NO2 Arg)", "setting": "cortical cell cultures; 500 μM quisqualate +500 μM NO2 Arg", "result": "51.1 ± 2.4", "unit": "%"}, {"measurement": "Cell death, % ± SEM (quisqualate + NO2 Arg + L-Arg)", "setting": "cortical cell cultures; 500 μM quisqualate +500 μM NO2 Arg + mM L-Arg", "result": "66.6 ± 5.3", "unit": "%"}, {"measurement": "inhibition at 100 µM", "setting": "cortical cell cultures; Rattus norvegicus, 100 μM NO2 Arg applied simultaneously with NMDA, read-out: reduction of NMDA-induced cell death", "result": 70, "unit": "%"}, {"measurement": "EC50", "setting": "cortical cell cultures; Rattus norvegicus, NMDA and related excitatory amino acids, read-out: EC50 for preventing neurotoxicity elicited by N-methyl-D-aspartate", "result": 20, "unit": "µM"}, {"measurement": "EC50", "setting": "cortical cell cultures; Rattus norvegicus, NMDA, read-out: concentration giving 50% prevention of NMDA-induced cell death", "result": "~20", "unit": "µM"}, {"measurement": "protection against kainate-induced cell death", "setting": "cortical cell cultures; kainate", "result": "no protection against kainate-induced cell death"}, {"measurement": "protection against quisqualate-induced cell death", "setting": "cortical cell cultures; quisqualate", "result": "A portion of cell death elicited by quisqualate is prevented; also recorded: higher concentrations of NO2 Arg are required than with NMDA toxicity"}]}
